“Also recorded” adds a separate entry of the source.

Here are results for five compounds from US11911408B2, “Synergistic formulations of adenosine receptor modulating agents and anticholinergics” (UNIVERSITY OF ALASKA FAIRBANKS, priority 2021, dated 2024).

Series [1] concerns Sprague-Dawley rats. The series is described as follows: Minimizing hemodynamic effects: antagonist pretreatments before IP CHA/CPA, rats on 4° C. cooled surface.
Experimental: Fifteen different treatment combinations were administered to five male Sprague-Dawley rats with an average age of 314±88 days and weight of 453±44 g (mean±SD) in a modified cross over design as shown in Table 1). […] A washout period of at least one week was allowed between treatments. One hour of baseline data (body temperature, blood pressure, heart rate, and metabolism) was acquired before treatment. Rats received either a single IP injection of CHA or were pre-treated with antagonists 15 or 30 minutes prior to CHA drugs and were then placed on a 4° C. cooled surface (previously described Laughlin et al; herein incorporated by reference). Surface temperature was manually adjusted to prevent body temperature from falling below 32° C.
The pressure transducer was cannulated into the descending abdominal aorta.
Rats were placed inside a 12″×12″ clear acrylic box without bedding sitting on top of a custom built, aluminum hydronic surface. The aluminum surface was part of a cooling and heating system controlled by a thermostat in which circulating water was heated or cooled via thermoelectric Peltier plates and pumped through the aluminum cage floor. […] Food and water was provided ad libitum. The vascular access button was attached to a tether and swivel (Instech, VAHD115T, 375/D/22, Plymouth Meeting, Pa.) connected to a counter balance arm to provide freedom of movement.
The subject of series [2] is Sprague-Dawley rats. The series is described as follows: 8-SPT dose determination (IV): atropine and 8-SPT bolus before CHA loading dose and infusion, 4° C. cooled surface. It is filed as in vivo, rat. To be noted: Atropine 1 mg/kg and SPT 10, 15 or 25 mg/kg (all doses) 15 min before CHA 1 mg/kg bolus, 0.25 mg/(kg·h) IV; n=5.
Experimental: To define the dose-response relationship between 8-SPT combined with a constant concentration of atropine and CHA, three drug treatment combinations with varying doses of 8-SPT were tested. […] One hour of baseline data (body temperature, blood pressure, heart rate, and metabolism) were acquired before treatment. Rats received IV bolus of Atropine and 8-SPT 15 minutes before CHA. An IV loading dose of CHA was administered followed by a two hour continuous infusion of CHA. Rats were placed on a 4° C. cooled surface (previously described Laughlin et al). Surface temperature was manually adjusted to prevent body temperature from falling below 32° C.
Rats were placed inside a 12″×12″ clear acrylic box without bedding sitting on top of a custom built, aluminum hydronic surface. The aluminum surface was part of a cooling and heating system controlled by a thermostat in which circulating water was heated or cooled via thermoelectric Peltier plates and pumped through the aluminum cage floor. […] Food and water was provided ad libitum.
The mark [3] stands for this setting: 8-SPT 25 mg/kg 15 min before CHA (S15C), n=4-5.
The mark [4] stands for this setting: 8-SPT 25 mg/kg administered 30 min after CHA 1 mg/kg, n=4-5.

As to `CC(C)NCC(O)COc1cccc2ccccc12` (centres unmarked) [propranolol], the prevention of hypotension result with Sprague-Dawley rats [1] (propranolol 4 mg/kg alone 15 min before CHA 1 mg/kg (P15C), n=3-5) is listed as “not sufficient”.

`OC[C@H]1O[C@@H](n2cnc3c(NC4CCCCC4)ncnc32)[C@H](O)[C@@H]1O` [CHA, N6-Cyclohexyladenosine]: the “blood pressure effect of the agonist alone” value in the series with Sprague-Dawley rats [1] (1 mg/kg at time point zero, n=4-5) is “hypotension”.

Consider `CN1C2CCC1CC(OC(=O)C(CO)c1ccccc1)C2` (centres unmarked) [Atropine, atropine], for which the “prevention of CHA induced hypotension” value with Sprague-Dawley rats [1] (rat, in vivo) is reported as “not sufficient; also recorded: does not prevent”.

For `CN(C)CCOC(c1ccccc1)c1ccccc1` [diphenhydramine], the prevention of hypotension entry with Sprague-Dawley rats [1] (diphenhydramine 4 mg/kg alone 30 min before CHA 1 mg/kg (D30C), n=3-5) is “not sufficient”.

Regarding `Cn1c(=O)c2[nH]c(-c3ccc(S(=O)(=O)O)cc3)nc2n(C)c1=O` [8-SPT, 8-(p-sulfophenyl) theophylline], the CHA induced hypotension result in the series on Sprague-Dawley rats [2] is recorded as “effectively blocked”. Also, in the series on Sprague-Dawley rats [1] (setting [3]), the “effect on heart rate compared to CHA 1 mg/kg alone” value was “minimal effect” and the “effect on mean arterial pressure compared to CHA 1 mg/kg alone” value is “minimal effect”. For the same compound, in the series on Sprague-Dawley rats [1] (setting [4]), the core body temperature result is given as “increased significantly”, the heart rate entry was “increased significantly”, the mean arterial pressure result is recorded as “increased significantly” and the oxygen consumption result is reported as “increased significantly”. In addition, the “prevention of CHA induced hypotension” value in the series on Sprague-Dawley rats [1] (8-SPT 25 mg/kg alone 15 min before CHA 1 mg/kg (S15C), n=3-5) is “not sufficient”. The “prevention of the initial drop in blood pressure or heart rate (hypotension) immediately following CHA administration” value in the series on Sprague-Dawley rats [1] (8-SPT alone (pretreatment), dose not stated) is “cannot prevent; also recorded: not sufficient”. In addition, in the series on Sprague-Dawley rats [1] (8-SPT alone, after metabolic suppression is stabilized), the “increase of blood pressure” value is listed as “sufficient”.
